For one experiment, the target named is GCN2 kinase (Homo sapiens (Human), UniProt Q9P2K8). Description: GCN2 Enzyme Inhibition Assay (Transcreener ADP2 fluorescence polarization). It is filed as biochemical. The note with it: 280 μM ATP, 200 μM (RS)7 peptide, 4 nM GCN2, 25° C.; for Ki: Ki(app). The essentials: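 Transcreener ADP2 fluorescence polarization detection of ADP from 4 nM GCN2 with (RS)7 substrate in 25 mM Tris-HCl pH 7.5, 50 mM NaCl, 10 mM MgCl2, 1 mM DTT. Compound pre-incubated with enzyme 10 min at 25 °C; reaction started by ATP, run 1 h at 25 °C. IC50 and Ki(app) by tight-binding fit.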
In general terms: Fluorescence polarisation rises when a labelled molecule tumbles more slowly, as on binding a larger partner.

For experiment [1], the target named is intracellular GCN2 (phosphorylation of the GCN2 substrate eIF2α) (Homo sapiens (Human), UniProt Q9P2K8). Description: GCN2 Cellular Inhibition Assay (AlphaScreen SureFire P-eIF2α Ser51, borrelidin-treated U2OS cells). The experiment is classed as cell-based. The note with it: 10 μM borrelidin, 1 h, phosphorylated eIF2α Ser51, read-out: GCN2 Biomarker (IC50). In a few lines: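 U2OS cells adhered overnight, then given compound (top 40 μM, 4-fold serial dilutions) plus 10 μM borrelidin for 1 h at 37 °C. Lysates assayed for eIF2α phospho-Ser51 by AlphaScreen SureFire; % inhibition versus borrelidin-only wells.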
On the technique in general: Bead proximity is the source of the signal in Alpha formats.

Bounds are passed on as bounds.

intracellular GCN2 (phosphorylation of the GCN2 substrate eIF2α), sequence (Q9P2K8 whole entry): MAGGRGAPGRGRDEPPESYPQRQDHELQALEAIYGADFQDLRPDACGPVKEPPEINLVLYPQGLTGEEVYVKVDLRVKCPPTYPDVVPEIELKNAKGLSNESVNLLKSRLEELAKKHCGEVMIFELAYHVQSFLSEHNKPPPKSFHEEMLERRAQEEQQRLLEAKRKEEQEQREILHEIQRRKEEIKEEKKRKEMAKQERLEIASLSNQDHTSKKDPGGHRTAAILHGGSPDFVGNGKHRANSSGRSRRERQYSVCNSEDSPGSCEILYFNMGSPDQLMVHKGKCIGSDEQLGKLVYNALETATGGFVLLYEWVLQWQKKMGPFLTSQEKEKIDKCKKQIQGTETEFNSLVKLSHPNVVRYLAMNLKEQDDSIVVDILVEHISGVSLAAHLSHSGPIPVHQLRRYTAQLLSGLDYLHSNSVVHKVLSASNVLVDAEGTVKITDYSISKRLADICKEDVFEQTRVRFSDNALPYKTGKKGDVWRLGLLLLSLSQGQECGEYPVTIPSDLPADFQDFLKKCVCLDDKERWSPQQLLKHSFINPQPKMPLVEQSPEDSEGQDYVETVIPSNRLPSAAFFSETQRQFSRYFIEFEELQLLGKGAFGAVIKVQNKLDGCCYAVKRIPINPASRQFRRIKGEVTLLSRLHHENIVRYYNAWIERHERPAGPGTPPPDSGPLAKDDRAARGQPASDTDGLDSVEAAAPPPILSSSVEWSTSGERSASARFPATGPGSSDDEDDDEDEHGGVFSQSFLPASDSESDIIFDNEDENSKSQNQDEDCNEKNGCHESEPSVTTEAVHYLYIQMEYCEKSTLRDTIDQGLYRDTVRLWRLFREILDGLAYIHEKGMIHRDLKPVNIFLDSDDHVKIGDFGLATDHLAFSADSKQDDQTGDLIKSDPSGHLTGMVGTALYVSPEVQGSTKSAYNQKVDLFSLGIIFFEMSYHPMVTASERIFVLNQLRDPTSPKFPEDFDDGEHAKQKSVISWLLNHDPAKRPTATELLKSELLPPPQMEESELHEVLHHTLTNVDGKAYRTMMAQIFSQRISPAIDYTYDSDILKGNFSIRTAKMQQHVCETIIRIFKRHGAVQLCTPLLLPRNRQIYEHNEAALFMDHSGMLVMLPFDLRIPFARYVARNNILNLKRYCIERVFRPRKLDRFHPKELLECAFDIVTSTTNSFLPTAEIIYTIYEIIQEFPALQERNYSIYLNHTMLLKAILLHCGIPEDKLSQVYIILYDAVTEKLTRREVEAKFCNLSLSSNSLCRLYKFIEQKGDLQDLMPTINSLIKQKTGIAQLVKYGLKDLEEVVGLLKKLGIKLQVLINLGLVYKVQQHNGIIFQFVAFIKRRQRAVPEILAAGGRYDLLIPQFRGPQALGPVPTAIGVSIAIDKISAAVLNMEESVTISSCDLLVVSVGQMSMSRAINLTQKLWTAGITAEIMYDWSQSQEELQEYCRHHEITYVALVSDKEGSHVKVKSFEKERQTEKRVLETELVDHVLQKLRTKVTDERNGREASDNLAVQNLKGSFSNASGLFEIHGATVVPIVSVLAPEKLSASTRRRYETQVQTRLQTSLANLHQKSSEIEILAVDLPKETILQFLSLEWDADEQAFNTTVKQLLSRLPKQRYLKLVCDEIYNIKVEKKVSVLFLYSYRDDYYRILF
GCN2 kinase, sequence (Q9P2K8 whole entry): as above

As to `CC(=O)N1[C@H](C)CN(c2ccnc(-c3cnc4ccc(C(F)(F)F)cn34)n2)C[C@@H]1C` [I-414, 1-(cis-2,6-dimethyl-4-(2-(6-(trifluoromethyl)imidazo[1,2-a]pyridin-3-yl)pyrimidin-4-yl)piperazin-1-yl)ethan-1-one], the figures for the IC50 (against GCN2 kinase; in experiment [1]) were 10 to 100 nM and 500 to 5000 nM, respectively.

On to `FC(F)(F)c1ccc2ncc(-c3nccc(N4CCN(C[C@H]5CC56CCOCC6)[C@H](c5cn[nH]c5)C4)n3)n2c1` [I-523, 3-(4-((R)-4-(((S)-6-oxaspiro[2.5]octan-1-yl)methyl)-3-(1H-pyrazol-4-yl)piperazin-1-yl)pyrimidin-2-yl)-6-(trifluoromethyl)imidazo[1,2-a]pyridine], for which the half-inhibitory concentration (IC50) is 10 to 100 nM against GCN2 kinase and under 500 nM in experiment [1].

With `FC(F)(F)c1ccc2ncc(-c3nccc(N4CCN(C5CC5)C(c5cn[nH]c5)C4)n3)n2c1` (stereo in doubt) [I-503, (R)-3-(4-(4-cyclopropyl-3-(1H-pyrazol-4-yl)piperazin-1-yl)pyrimidin-2-yl)-6-(trifluoromethyl)imidazo[1,2-a]pyridine], the IC50 against GCN2 kinase is 10 to 100 nM; in experiment [1] it was under 500 nM.

For `CC1CN(c2nccc(-c3cnc4ccc(C(F)(F)F)cn34)n2)C(C)C(c2cn[nH]c2)N1` (single isomer, unassigned) [I-34, 3-[2-[2,5-dimethyl-3-(1H-pyrazol-4-yl)piperazin-1-yl]pyrimidin-4-yl]-6-(trifluoromethyl)imidazo[1,2-a]pyridine], the Ki on GCN2 kinase is under 10 nM. Moreover, the IC50 in experiment [1] was under 500 nM.

Regarding `CC1CN(c2nccc(-c3cnc4ccc(Cl)cn34)n2)C(C)C(c2cn[nH]c2)N1` (centres unmarked) [I-35, 6-Chloro-3-[4-[2,5-dimethyl-3-(1H-pyrazol-4-yl)piperazin-1-yl]pyrimidin-2-yl]imidazo[12-a]pyridine], on GCN2 kinase, the Ki lay within 10 to 100 nM. Also, in experiment [1], the IC50 was 500 to 5000 nM.

Compound `C[C@H]1CN(c2ccnc(-c3cnc4ccc(C(F)(F)F)cn34)n2)C[C@@H](CNS(C)(=O)=O)C1(F)F` (stereo in doubt) [I-8, N-[[-4,4-Difluoro-5-methyl-1-[2-[6-(trifluoromethyl)imidazo[1,2-a]pyridin-3-yl]pyrimidin-4-yl]-3-piperidyl]methyl]methanesulfonamide] gave a Ki at GCN2 kinase of 10 to 100 nM. Besides, the IC50 in experiment [1] is 500 to 5000 nM.

In the case of `FC(F)(F)c1ccc2ncc(-c3nccc(N4CCN(C[C@H]5CC56CCOCC6)[C@@H](c5cn[nH]c5)C4)n3)n2c1` [I-521, 3-(4-((S)-4-(((S)-6-oxaspiro[2.5]octan-1-yl)methyl)-3-(1H-pyrazol-4-yl)piperazin-1-yl)pyrimidin-2-yl)-6-(trifluoromethyl)imidazo[1,2-a]pyridine], the IC50 on GCN2 kinase was under 10 nM; in experiment [1], under 500 nM.

As for `Cc1[nH]ncc1[C@H]1CN(c2ccnc(-c3cnc4ccc(C(F)(F)F)cn34)n2)C[C@H](C)O1` [I-147, (2 S,6 S)-2-methyl-6-(5-methyl-1H-pyrazol-4-yl)-4-(2-(6-(trifluoromethyl)imidazo[1,2-a]pyridin-3-yl)pyrimidin-4-yl)morpholine], the IC50 on GCN2 kinase is 10 to 100 nM; in experiment [1], under 500 nM.

As to `Cc1n[nH]cc1C1CN(c2ccnc(-c3cnc4ccc(C(F)(F)F)cn34)n2)CC(C)O1` (centres unmarked) [I-358, 2-methyl-6-(3-methyl-1H-pyrazol-4-yl)-4-(2-(6-(trifluoromethyl)imidazo[1,2-a]pyridin-3-yl)pyrimidin-4-yl)morpholine], the IC50 is under 10 nM at GCN2 kinase and under 500 nM in experiment [1].

`COCCn1cc([C@@H]2C[C@@H](C)CN(c3nccc(-c4cnc5ccc(C(F)(F)F)cn45)n3)C2)cn1` [I-145, 3-(2-((3S,5R)-3-(1-(2-methoxyethyl)-1H-pyrazol-4-yl)-5-methylpiperidin-1-yl)pyrimidin-4-yl)-6-(trifluoromethyl)imidazo[1,2-a]pyridine]: the IC50 at GCN2 kinase is 100 to 1000 nM; in experiment [1], under 500 nM.

On to `CC1(C)CN(c2ccnc(-c3cnc4ccc(C(F)(F)F)cn34)n2)CCN1S(C)(=O)=O` [I-339, 3-(4-(3,3-dimethyl-4-(methylsulfonyl)piperazin-1-yl)pyrimidin-2-yl)-6-(trifluoromethyl)imidazo[1,2-a]pyridine], for which the figures for the IC50 (at GCN2 kinase; in experiment [1]) were 10 to 100 nM and 500 to 5000 nM, respectively.

For the compound `N#Cc1ccc2ncc(-c3nccc(N4CCOC(c5cn[nH]c5C(F)F)C4)n3)n2c1` (centres unmarked) [I-193, 3-(4-(2-(5-(difluoromethyl)-1H-pyrazol-4-yl)morpholino)pyrimidin-2-yl)imidazo[1,2-a]pyridine-6-carbonitrile], the IC50 on GCN2 kinase was under 10 nM; in experiment [1], under 500 nM.

`C[C@@H]1[C@H](CNS(C)(=O)=O)N(C2CC2)CCN1c1nccc(-c2cnc3ccc(C(F)(F)F)cn23)n1` [I-543, N-{(2S,3R)-1-Cyclopropyl-3-methyl-4-[4-(6-trifluoromethyl-imidazo[1,2-a]pyridin-3-yl)-pyrimidin-2-yl]-piperazin-2-ylmethyl}-methanesulfonamide]: the IC50 was under 10 nM on GCN2 kinase and under 500 nM in experiment [1].

On to `C[C@@H]1C[C@H](N=S(C)(C)=O)CN(c2ccnc(-c3cnc4ccc(C(F)F)cn34)n2)C1` [I-340, (((3 S, 5R)-1-(2-(6-(difluoromethyl)imidazo[1,2-a]pyridin-3-yl)pyrimidin-4-yl)-5-methylpiperidin-3-yl)imino)dimethyl-λ6-sulfanone], for which the figures for the IC50 (against GCN2 kinase; in experiment [1]) were under 10 nM and under 500 nM, respectively.

For the compound `Clc1ccc2ncc(-c3ncnc(N4CCOC(c5cn[nH]c5)C4)n3)n2c1` (centres unmarked) [I-22, 4-[4-(6-Chloroimidazo[1,2-a]pyridin-3-yl)-1,3,5-triazin-2-yl]-2-(1H-pyrazol-4-yl)morpholine], the Ki at GCN2 kinase is under 10 nM. For the same compound, the IC50 in experiment [1] is under 500 nM.

On to `C[C@@H]1C[C@H](N=S(C)(C)=O)CN(c2nccc(-c3cnc4cc(Cl)c(Cl)cn34)n2)C1` [I-244, (((3 S,5R)-1-(4-(6,7-dichloroimidazo[1,2-a]pyridin-3-yl)pyrimidin-2-yl)-5-methylpiperidin-3-yl)imino)dimethyl-λ6-sulfanone], for which the results for the IC50 (against GCN2 kinase; in experiment [1]) were 10 to 100 nM and 500 to 5000 nM, respectively.

At GCN2 kinase, `Clc1ccc2ncc(-c3nccc(N4CCNC(c5cn[nH]c5)C4)n3)n2c1` (centres unmarked) [I-28, 6-Chloro-3-[4-[3-(1H-pyrazol-4-yl)piperazin-1-yl]pyrimidin-2-yl]imidazo[1,2-a]pyridine] came in with a Ki of under 10 nM. In addition, the IC50 in experiment [1] was in the range of 500 to 5000 nM.

With `CC1(C)C[C@@H]1CN1CCN(c2ccnc(-c3cnc4ccc(C(F)(F)F)cn34)n2)C[C@@H]1c1cn[nH]c1` [I-527, 3-(4-((S)-4-(((S)-2,2-dimethylcyclopropyl)methyl)-3-(1H-pyrazol-4-yl)piperazin-1-yl)pyrimidin-2-yl)-6-(trifluoromethyl)imidazo[1,2-a]pyridine], the concentration for half-maximal inhibition (IC50) at GCN2 kinase was 10 to 100 nM; in experiment [1] it was 500 to 5000 nM.

As to `COc1cc(-c2cnc3ccc(Cl)cn23)nc(N2C[C@H](C)C[C@@H](c3cn[nH]c3)C2)n1` [I-280, 6-chloro-3-(6-methoxy-2-((3R,5S)-3-methyl-5-(1H-pyrazol-4-yl)piperidin-1-yl)pyrimidin-4-yl)imidazo[1,2-a]pyridine], the IC50 at GCN2 kinase was 10 to 100 nM; in experiment [1], under 500 nM.

As to `O=C(Nc1ccncc1)[C@H]1CCCN(c2ccnc(-c3cnc4cc(F)c(Cl)cn34)n2)C1` [I-86, (S)-1-[2-(6-Chloro-7-fluoro-imidazo[1,2-a]pyridine-3-yl)-pyrimidin-4-yl]-piperidine-3-carboxylic acid pyridine-4-ylamide], the Ki at GCN2 kinase lay in the range of 10 to 100 nM. The IC50 in experiment [1] was 500 to 5000 nM.

Take `Cn1nccc1C(=O)N1CCN(c2ccnc(-c3cnc4ccc(C(F)(F)F)cn34)n2)CC1c1cn[nH]c1` (centres unmarked) [I-419, (2-(1H-pyrazol-4-yl)-4-(2-(6-(trifluoromethyl)imidazo[1,2-a]pyridin-3-yl)pyrimidin-4-yl)piperazin-1-yl)(1-methyl-1H-pyrazol-5-yl)methanone]: the IC50 at GCN2 kinase lay in the range of 10 to 100 nM; in experiment [1], 500 to 5000 nM.

On to `NC(=O)[C@H]1CN(c2ccnc(-c3cnc4ccc(Cl)cn34)n2)CCN1C1CC1` [I-349, (R)-4-(2-(6-chloroimidazo[1,2-a]pyridin-3-yl)pyrimidin-4-yl)-1-cyclopropylpiperazine-2-carboxamide], for which the IC50 was in the range of 10 to 100 nM against GCN2 kinase and 500 to 5000 nM in experiment [1].

`C[C@@H]1CN(c2ccnc(-c3cnc4ccc(C(F)(F)F)cn34)n2)C[C@H](C)N1C(=O)CC1CCOCC1` [I-464, 1-(cis-2,6-dimethyl-4-(2-(6-(trifluoromethyl)imidazo[1,2-a]pyridin-3-yl)pyrimidin-4-yl)piperazin-1-yl)-2-(tetrahydro-2H-pyran-4-yl)ethan-1-one]: the IC50 against GCN2 kinase is 100 to 1000 nM; in experiment [1], 500 to 5000 nM.

For `C[C@@H](NS(C)(=O)=O)[C@@H]1CN(c2ccnc(-c3cnc4ccc(C(F)(F)F)cn34)n2)CCO1` (stereo in doubt) [I-404, N—((R)-1-((S)-4-(2-(6-(trifluoromethyl)imidazo[1,2-a]pyridin-3-yl)pyrimidin-4-yl)morpholin-2-yl)ethyl)methanesulfonamide], the IC50 on GCN2 kinase is 10 to 100 nM; in experiment [1], 500 to 5000 nM.

As for `Cn1cc(NC(=O)[C@H]2CCCN(c3ccnc(-c4cnc5cc(F)c(Cl)cn45)n3)C2)cn1` [I-59, (S)-1-[2-(6-Chloro-7-fluoro-imidazo[1,2-a]pyridine-3-yl)-pyrimidin-4-yl]-piperidine-3-carboxylic acid (1-methyl-1H-pyrazol-4-yl)-amide], the Ki at GCN2 kinase is 100 to 1000 nM. The IC50 in experiment [1] is over 5000 nM.

By IC50 is commonly meant the midpoint of a concentration-inhibition curve.

Values taken from patent US10793563B2, “GCN2 inhibitors and uses thereof” (Merck Patent GmbH, priority 2018, dated 2020).
